The values that follow come from patent US20230321086A1, “METHODS AND MATERIALS FOR INHIBITING NICOTINAMIDE PHOSPHORIBOSYLTRANSFERASE ACTIVITY” (Universiy of Pittsburgh - Of the Commonwealth System of …, priority 2020, published 2023).

The experiment relates to A431 cells. Kind of experiment: Assay for total NADH and NAD+ measurements in cells. Particulars: percent of NAD level of untreated control cells (100 = no change). On the set-up: C: change in NAD levels in response to test compound, shown as % of NAD activity in the absence of test compound: concentration or dose not given beside the values. Type of experiment: cell-based. Here is the method: 2,000 cells/well and, at the same time, test compounds dissolved in media at the desired concentration were added to each well. The treated cells were incubated overnight in C02 incubator. The cells were washed 6 times with PBS with 1 mM CaCl2) and 1 mM MgCl2. In the last wash, 10 μL of PBS with 1 mM CaCl2) and 1 mM MgCl2 per well were left in each well. Immediately thereafter, 10 μL 0.4% dodecyltrimethylammonium bromide (DTAB) in phosphate buffer pH 8.0 as added, and the plates were shaked at 1000 rpm for 5 minutes. 60 μL reaction mix was added, and fluorescence at Ex/Em 530/585 was immediately monitored. A linear increase should be achieved with 8 cycles every 92 seconds, 10 number of flashes/well/cycle. The reaction mix was prepared per the following table, respecting the amount and order in which each component was added:
All assays were performed in A431 cells. Referring to the tables below, activity: “+” ≥25 μM, “++” ≥1 μM and <25 μM, and “+++”<1 μM.
In each table header, A: NAMPT enzyme inhibitory activity, IC50 (μM); B: Cellular NAD inhibitory activity, IC50 (μM); and C: change in NAD levels in response to test compound, shown as % of NAD activity in the absence of test compound. […] A percentage of 100 percent would indicate no increase or decrease in NAD levels as compared to that measured for untreated control cells, while a percentage of 50 percent would indicate a decrease in NAD levels of 50 percent as compared to that measured for untreated control cells.
Consider `Cn1cnnc1-c1ccc2nc(-c3ccc(F)cc3)c(-c3ccc(F)cc3)nc2c1` [BC19101], for which the “C: change in NAD levels in response to test compound, shown as % of NAD activity in the absence of test compound” value is reported as 53%.
As for `CN1CCN(C(=O)c2ccc3nc(C(F)(F)F)c(-c4ccc(F)cc4)nc3c2)CC1` [BC19103], the “C: change in NAD levels in response to test compound, shown as % of NAD activity in the absence of test compound” value is 92%.
For the molecule `Cn1nnnc1-c1ccc2nc(C(F)(F)F)c(-c3ccc(F)cc3)nc2c1` [BC19112], the “C: change in NAD levels in response to test compound, shown as % of NAD activity in the absence of test compound” value was determined as 86%.
As for `C#CCNC(=O)c1ccc2nc(-c3cccs3)c(-c3ccc(F)cc3)nc2c1` [BC19120], the “C: change in NAD levels in response to test compound, shown as % of NAD activity in the absence of test compound” value was found to be 84%.
Next, `Cn1nnnc1-c1ccc2nc(-c3ccc(F)cc3)c(-c3ccc(F)cc3)nc2c1` [BC19139]: 29%.
With `Cc1cnc(-c2ccc3nc(-c4ccc(F)cc4)c(-c4ccc(F)cc4)nc3c2)o1` [BC19140], the “C: change in NAD levels in response to test compound, shown as % of NAD activity in the absence of test compound” value is 90%.
As to `Cc1nnc(-c2ccc3nc(-c4ccc(F)cc4)c(-c4ccc(F)cc4)nc3c2)o1` [BC19141], the “C: change in NAD levels in response to test compound, shown as % of NAD activity in the absence of test compound” value worked out at 62%.
As to `CN1CCN(C(=O)c2ccc3nc(C(F)(F)F)c(-c4cccc(F)c4)nc3c2)CC1` [BC19142], the “C: change in NAD levels in response to test compound, shown as % of NAD activity in the absence of test compound” value came to 94%.
For `Fc1ccc(-c2nc3ccc(-c4nnc[nH]4)cc3nc2-c2ccc(F)cc2)cc1` [BC19143], the “C: change in NAD levels in response to test compound, shown as % of NAD activity in the absence of test compound” value came to 80%.
With `Cn1cc(-c2ccc3nc(-c4ccc(F)cc4)c(-c4ccc(F)cc4)nc3c2)nn1` [BC19148], the “C: change in NAD levels in response to test compound, shown as % of NAD activity in the absence of test compound” value worked out at 80%.
Next, `Fc1ccc(-c2nc3ccc(-c4c[nH]nn4)cc3nc2-c2ccc(F)cc2)cc1` [BC19150]: 89%.
Take `Cn1nnnc1-c1ccc2nc(-c3ccc(F)cc3)c(C(F)(F)F)nc2c1` [BC19152]: the “C: change in NAD levels in response to test compound, shown as % of NAD activity in the absence of test compound” value was 93%.
For `C#CCNC(=O)c1ccc2nc(-c3ccc(F)cc3)c(-c3ccc(F)cc3)nc2c1` [BC19154], the “C: change in NAD levels in response to test compound, shown as % of NAD activity in the absence of test compound” value was found to be 73%.
Turning to `Fc1ccc(-c2nc3ccc(-c4nnc[nH]4)cc3nc2C(F)(F)F)cc1` [BC19159], the “C: change in NAD levels in response to test compound, shown as % of NAD activity in the absence of test compound” value is given as 92%.
For `CN1CCN(C(=O)c2ccc3nc(-c4ccc(F)cc4)c(-c4cccs4)nc3c2)CC1` [BC19185], the “C: change in NAD levels in response to test compound, shown as % of NAD activity in the absence of test compound” value is recorded as 94%.
On to `N#Cc1ccc2nc(-c3ccc(F)cc3)c(-c3ccc(F)cc3)nc2c1` [BC19192], for which the “C: change in NAD levels in response to test compound, shown as % of NAD activity in the absence of test compound” value is given as 76%.
As for `N=C(NO)c1ccc2nc(-c3ccc(F)cc3)c(-c3ccc(F)cc3)nc2c1` [BC19194], the “C: change in NAD levels in response to test compound, shown as % of NAD activity in the absence of test compound” value was determined as 45%.
With `CC(C)OC(=O)Nc1ccc2nc(-c3ccc(F)cc3)c(-c3ccc(F)cc3)nc2c1` [BC19195], the “C: change in NAD levels in response to test compound, shown as % of NAD activity in the absence of test compound” value is recorded as 90%.
Regarding `O=C(NCCN1CCOCC1)c1ccc2nc(-c3ccc(F)cc3)c(-c3ccc(F)cc3)nc2c1` [BC19237], the “C: change in NAD levels in response to test compound, shown as % of NAD activity in the absence of test compound” value is listed as 24%.
On to `Fc1ccc(-c2nc3ccc(-c4nnnn4CCN4CCOCC4)cc3nc2-c2ccc(F)cc2)cc1` [BC19238], for which the “C: change in NAD levels in response to test compound, shown as % of NAD activity in the absence of test compound” value was 68%.
`O=C(Nc1ccc2nc(-c3ccc(F)cc3)c(-c3ccc(F)cc3)nc2c1)OCC(F)(F)F` [BC19239]: the “C: change in NAD levels in response to test compound, shown as % of NAD activity in the absence of test compound” value turned out to be 66%.
`Fc1ccc(-c2nc3ccc(-c4cn(CCN5CCOCC5)nn4)cc3nc2-c2ccc(F)cc2)cc1` [BC19240]: the “C: change in NAD levels in response to test compound, shown as % of NAD activity in the absence of test compound” value amounted to 27%.
For `Cc1nc(C)c(-c2ccc3nc(-c4ccc(F)cc4)c(-c4ccc(F)cc4)nc3c2)s1` [BC19241], the “C: change in NAD levels in response to test compound, shown as % of NAD activity in the absence of test compound” value is 79%.
As to `Fc1ccc(-c2nc3ccc(-c4cccnc4)cc3nc2-c2ccc(F)cc2)cc1` [BC19242], the “C: change in NAD levels in response to test compound, shown as % of NAD activity in the absence of test compound” value is 72%.
Consider `CS(=O)(=O)c1cncc(-c2ccc3nc(-c4ccc(F)cc4)c(-c4ccc(F)cc4)nc3c2)c1` [BC19243], for which the “C: change in NAD levels in response to test compound, shown as % of NAD activity in the absence of test compound” value stood at 64%.
With `CN1CCOc2cc(-c3ccc4nc(-c5ccc(F)cc5)c(-c5ccc(F)cc5)nc4c3)ccc21` [BC19244], the “C: change in NAD levels in response to test compound, shown as % of NAD activity in the absence of test compound” value is listed as 86%.
Next, `Fc1ccc(-c2nc3ccc(-c4ccncc4)cc3nc2-c2ccc(F)cc2)cc1` [BC19245]: 67%; `CCc1nnc(-c2ccc3nc(-c4ccc(F)cc4)c(-c4ccc(F)cc4)nc3c2)o1` [BC19246]: 58%.
As for `CCCc1nnc(-c2ccc3nc(-c4ccc(F)cc4)c(-c4ccc(F)cc4)nc3c2)[nH]1` [BC19247], the “C: change in NAD levels in response to test compound, shown as % of NAD activity in the absence of test compound” value is reported as 94%.
In the case of `Fc1ccc(-c2nc3ccc(-c4nnco4)cc3nc2-c2ccc(F)cc2)cc1` [BC19250], the “C: change in NAD levels in response to test compound, shown as % of NAD activity in the absence of test compound” value is reported as 13%.
For `O=C(Nc1ccc2nc(-c3ccc(F)cc3)c(-c3ccc(F)cc3)nc2c1)C1CCNCC1` [BC19251], the “C: change in NAD levels in response to test compound, shown as % of NAD activity in the absence of test compound” value came out at 0%.
As to `Cc1nnc(-c2ccc3nc(-c4ccc(F)cc4)c(-c4ccc(F)cc4)nc3c2)n1C` [BC19301], the “C: change in NAD levels in response to test compound, shown as % of NAD activity in the absence of test compound” value worked out at 57%.
On to `Cn1cc(-c2ccc3nc(-c4ccc(F)cc4)c(-c4ccc(F)cc4)nc3c2)cn1` [BC19302], for which the “C: change in NAD levels in response to test compound, shown as % of NAD activity in the absence of test compound” value was 58%.
As for `Cc1ccncc1-c1ccc2nc(-c3ccc(F)cc3)c(-c3ccc(F)cc3)nc2c1` [BC19304], the “C: change in NAD levels in response to test compound, shown as % of NAD activity in the absence of test compound” value was 69%.
`Cn1ncc2c(-c3ccc4nc(-c5ccc(F)cc5)c(-c5ccc(F)cc5)nc4c3)cccc21` [BC19305]: the “C: change in NAD levels in response to test compound, shown as % of NAD activity in the absence of test compound” value is listed as 93%.
The same measure for `Fc1ccc(-c2nc3ccc(-c4nncn4CCN4CCOCC4)cc3nc2-c2ccc(F)cc2)cc1` [BC19306]: 76%; for `Cc1ccc(S(=O)(=O)c2nc3cc(C(=O)N4CCN(C)CC4)ccc3nc2-c2ccc(F)cc2)cc1F` [BC19307]: 31%.
The same measure for `Cc1ccc(S(=O)(=O)c2nc3cc(C(=O)N4CCN(C)CC4)ccc3nc2-c2ccc(F)cc2)cc1` [BC19308]: 48%.
Turning to `CN1CCC(C(=O)Nc2ccc3nc(-c4ccc(F)cc4)c(-c4ccc(F)cc4)nc3c2)CC1` [BC19309], the “C: change in NAD levels in response to test compound, shown as % of NAD activity in the absence of test compound” value was 18%.
Next, `CC(=O)N1CCC(C(=O)Nc2ccc3nc(-c4ccc(F)cc4)c(-c4ccc(F)cc4)nc3c2)CC1` [BC19310]: 52%.
As to `CNC(=O)N1CCC(C(=O)Nc2ccc3nc(-c4ccc(F)cc4)c(-c4ccc(F)cc4)nc3c2)CC1` [BC19311], the “C: change in NAD levels in response to test compound, shown as % of NAD activity in the absence of test compound” value is 63%.
As to `CS(=O)(=O)N1CCC(C(=O)Nc2ccc3nc(-c4ccc(F)cc4)c(-c4ccc(F)cc4)nc3c2)CC1` [BC19312], the “C: change in NAD levels in response to test compound, shown as % of NAD activity in the absence of test compound” value was 54%.
For the molecule `C=CC(=O)Nc1ccc2nc(-c3ccc(F)cc3)c(-c3ccc(F)cc3)nc2c1` [BC19313], the “C: change in NAD levels in response to test compound, shown as % of NAD activity in the absence of test compound” value was found to be 91%.
Regarding `CC#CC(=O)Nc1ccc2nc(-c3ccc(F)cc3)c(-c3ccc(F)cc3)nc2c1` [BC19314], the “C: change in NAD levels in response to test compound, shown as % of NAD activity in the absence of test compound” value turned out to be 33%.
For the molecule `C[C@H](Cl)C(=O)Nc1ccc2nc(-c3ccc(F)cc3)c(-c3ccc(F)cc3)nc2c1` [BC19315], the “C: change in NAD levels in response to test compound, shown as % of NAD activity in the absence of test compound” value is 89%.
Regarding `CN1CCN(C(=O)c2ccc3nc(-c4ccc(F)cc4)c(-c4ccc(Cl)cc4)nc3c2)CC1` [BC19317], the “C: change in NAD levels in response to test compound, shown as % of NAD activity in the absence of test compound” value came to 42%.
In the case of `CN1CCN(C(=O)c2ccc3nc(-c4ccc(F)cc4)c(-c4ccc(F)cc4F)nc3c2)CC1` [BC19318], the “C: change in NAD levels in response to test compound, shown as % of NAD activity in the absence of test compound” value was determined as 67%.
The same measure for `CCc1ccc(-c2nc3cc(C(=O)N4CCN(C)CC4)ccc3nc2-c2ccc(F)cc2)cc1` [BC19319]: 95%; for `C#CCNC(=O)c1cccc2nc(-c3ccc(F)cc3)c(-c3ccc(F)cc3)nc12` [BC19321]: 72%.
In the case of `CN1CCN(C(=O)c2ccc3nc(-c4ccc(F)cc4)c(S(=O)(=O)c4cccc(F)c4)nc3c2)CC1` [BC19395], the “C: change in NAD levels in response to test compound, shown as % of NAD activity in the absence of test compound” value worked out at 71%.
